Assays:
A549 = experiment: Antiproliferative activity against human A549 cells assessed as inhibition of cell growth incubated for 72 hrs by MTT assay; format: functional, cell-based; conditions: A549, 72 h
MDA-MB-231 [1] = experiment: Induction of apoptosis in human MDA-MB-231 cells assessed as necrotic cells at 10 uM incubated for 24 hrs by annexin V-FITC/propidium iodide staining based flow cytometry analysis (reference value: 0.034%); format: functional
[2] = target: Cyclin-dependent kinase 4 (Homo sapiens, UniProt P11802); experiment: Covalent inhibition of CDK4 (unknown origin) using histone H1 as substrate incubated for 10 mins in presence of [gamma-32P]ATP by radioactivity based kinase assay
MDA-MB-231 [3] = experiment: Induction of apoptosis in human MDA-MB-231 cells assessed as apoptosis rate at 10 uM incubated for 24 hrs by annexin V-FITC/propidium iodide staining based flow cytometry analysis; format: functional
MDA-MB-231 [4] = experiment: Cell cycle arrest in human MDA-MB-231 cells assessed as accumulation of cells at S phase at 10 uM incubated for 24 hrs by propidium iodide staining based assay (reference value: 25.09%); format: functional
[5] = target: Cyclin-dependent kinase 9 (Homo sapiens, UniProt P50750); experiment: Covalent inhibition of CDK9 (unknown origin) using histone H1 as substrate incubated for 10 mins in presence of [gamma-32P]ATP by radioactivity based kinase assay
MCF7 [6] = experiment: Antiproliferative activity against human MCF7 cells assessed as inhibition of cell growth incubated for 72 hrs by MTT assay; format: functional, cell-based; conditions: MCF7, 72 h
[7] = target: Cyclin-dependent kinase 6 (Homo sapiens, UniProt Q00534); experiment: Covalent inhibition of CDK6 (unknown origin) using histone H1 as substrate incubated for 10 mins in presence of [gamma-32P]ATP by radioactivity based kinase assay
[8] = target: Cyclin-dependent kinase 12 (Homo sapiens, UniProt Q9NYV4); experiment: Covalent inhibition of CDK12 (unknown origin) using histone H1 as substrate incubated for 10 mins in presence of [gamma-32P]ATP by radioactivity based kinase assay
MDA-MB-231 [9] = experiment: Induction of apoptosis in human MDA-MB-231 cells assessed as late apoptotic cells at 10 uM incubated for 24 hrs by annexin V-FITC/propidium iodide staining based flow cytometry analysis (reference value: 0.113%); format: functional
MDA-MB-231 [10] = experiment: Cell cycle arrest in human MDA-MB-231 cells assessed as accumulation of cells at G0/G1 phase at 10 uM incubated for 24 hrs by propidium iodide staining based assay (reference value: 54.43%); format: functional
HepG2 = experiment: Antiproliferative activity against human HepG2 cells assessed as inhibition of cell growth incubated for 72 hrs by MTT assay; format: functional, cell-based; conditions: HepG2, 72 h
MDA-MB-231 [11] = experiment: Induction of apoptosis in human MDA-MB-231 cells assessed as viable cells at 10 uM incubated for 24 hrs by annexin V-FITC/propidium iodide staining based flow cytometry analysis (reference value: 96.5%); format: functional; conditions: read-out: Activity
MDA-MB-231 [12] = experiment: Cell cycle arrest in human MDA-MB-231 cells assessed as accumulation of cells at G2/M phase at 10 uM incubated for 24 hrs by propidium iodide staining based assay (reference value: 20.49%); format: functional
MDA-MB-231 [13] = experiment: Antiproliferative activity against human MDA-MB-231 cells assessed as inhibition of cell growth incubated for 72 hrs by MTT assay; format: functional, cell-based; conditions: MDA-MB-231, 72 h
MDA-MB-231 [14] = experiment: Induction of apoptosis in human MDA-MB-231 cells assessed as early apoptotic cells at 10 uM incubated for 24 hrs by annexin V-FITC/propidium iodide staining based flow cytometry analysis (reference value: 3.39%); format: functional
MCF7 [15] = experiment: Antiproliferative activity against palbociclib-resistant human MCF7 cells assessed as inhibition of cell growth incubated for 72 hrs by MTT assay; format: functional, cell-based; conditions: MCF7, 72 h

Sequence of Cyclin-dependent kinase 12 (Q9NYV4 whole entry): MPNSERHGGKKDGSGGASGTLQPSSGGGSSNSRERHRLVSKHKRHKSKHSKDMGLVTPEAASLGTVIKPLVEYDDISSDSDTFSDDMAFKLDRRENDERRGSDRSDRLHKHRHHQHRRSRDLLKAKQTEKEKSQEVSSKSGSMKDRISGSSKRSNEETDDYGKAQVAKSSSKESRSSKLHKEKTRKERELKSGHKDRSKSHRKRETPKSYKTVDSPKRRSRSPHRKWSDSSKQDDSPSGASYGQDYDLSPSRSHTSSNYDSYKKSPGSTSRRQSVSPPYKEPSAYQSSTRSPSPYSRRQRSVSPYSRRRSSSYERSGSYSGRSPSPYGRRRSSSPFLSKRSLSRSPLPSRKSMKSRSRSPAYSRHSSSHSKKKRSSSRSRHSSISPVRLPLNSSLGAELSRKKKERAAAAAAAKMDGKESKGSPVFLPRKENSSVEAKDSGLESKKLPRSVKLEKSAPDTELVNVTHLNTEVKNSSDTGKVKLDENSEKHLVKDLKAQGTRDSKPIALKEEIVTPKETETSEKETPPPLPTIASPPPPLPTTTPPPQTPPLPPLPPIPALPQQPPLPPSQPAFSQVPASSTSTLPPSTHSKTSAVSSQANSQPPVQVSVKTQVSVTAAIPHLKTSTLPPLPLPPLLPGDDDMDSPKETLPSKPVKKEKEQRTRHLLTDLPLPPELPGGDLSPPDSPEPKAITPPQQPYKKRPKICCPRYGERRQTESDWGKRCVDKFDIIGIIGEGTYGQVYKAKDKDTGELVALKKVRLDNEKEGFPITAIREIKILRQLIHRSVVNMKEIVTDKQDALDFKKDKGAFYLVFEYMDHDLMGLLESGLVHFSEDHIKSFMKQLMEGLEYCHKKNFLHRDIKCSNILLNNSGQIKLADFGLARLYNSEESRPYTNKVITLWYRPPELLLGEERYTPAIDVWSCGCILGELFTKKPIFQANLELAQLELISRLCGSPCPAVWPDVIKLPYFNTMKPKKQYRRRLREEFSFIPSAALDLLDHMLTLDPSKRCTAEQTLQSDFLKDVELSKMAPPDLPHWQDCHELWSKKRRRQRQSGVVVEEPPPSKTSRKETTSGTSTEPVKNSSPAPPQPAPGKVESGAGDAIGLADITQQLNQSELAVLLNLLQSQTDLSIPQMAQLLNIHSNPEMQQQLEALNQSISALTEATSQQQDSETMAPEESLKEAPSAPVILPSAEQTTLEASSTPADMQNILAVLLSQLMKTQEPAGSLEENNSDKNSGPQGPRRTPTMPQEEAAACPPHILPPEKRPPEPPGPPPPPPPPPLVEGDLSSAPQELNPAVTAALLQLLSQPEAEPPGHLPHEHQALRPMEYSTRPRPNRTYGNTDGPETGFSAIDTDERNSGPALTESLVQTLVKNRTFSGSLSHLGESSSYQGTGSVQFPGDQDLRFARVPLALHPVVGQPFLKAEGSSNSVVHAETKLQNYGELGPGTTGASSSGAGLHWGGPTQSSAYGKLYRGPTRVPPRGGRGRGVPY
Sequence of Cyclin-dependent kinase 9 (P50750 whole entry): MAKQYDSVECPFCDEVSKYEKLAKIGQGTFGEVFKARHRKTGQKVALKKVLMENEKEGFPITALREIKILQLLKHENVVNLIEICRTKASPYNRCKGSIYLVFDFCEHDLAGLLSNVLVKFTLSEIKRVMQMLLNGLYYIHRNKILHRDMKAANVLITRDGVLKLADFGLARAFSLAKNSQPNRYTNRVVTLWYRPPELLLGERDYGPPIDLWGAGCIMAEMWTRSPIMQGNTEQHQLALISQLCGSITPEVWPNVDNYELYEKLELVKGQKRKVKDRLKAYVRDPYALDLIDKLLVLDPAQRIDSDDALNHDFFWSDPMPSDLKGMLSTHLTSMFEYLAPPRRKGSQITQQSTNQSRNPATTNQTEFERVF
Sequence of Cyclin-dependent kinase 6 (Q00534 whole entry): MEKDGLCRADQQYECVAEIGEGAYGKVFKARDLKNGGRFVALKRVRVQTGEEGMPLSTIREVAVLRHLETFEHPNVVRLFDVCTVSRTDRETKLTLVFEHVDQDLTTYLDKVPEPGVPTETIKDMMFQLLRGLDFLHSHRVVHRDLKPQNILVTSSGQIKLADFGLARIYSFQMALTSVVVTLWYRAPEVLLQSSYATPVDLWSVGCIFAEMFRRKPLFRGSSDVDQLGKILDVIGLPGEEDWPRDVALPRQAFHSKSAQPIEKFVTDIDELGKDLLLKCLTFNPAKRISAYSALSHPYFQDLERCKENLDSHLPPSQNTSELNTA
Sequence of Cyclin-dependent kinase 4 (P11802 whole entry): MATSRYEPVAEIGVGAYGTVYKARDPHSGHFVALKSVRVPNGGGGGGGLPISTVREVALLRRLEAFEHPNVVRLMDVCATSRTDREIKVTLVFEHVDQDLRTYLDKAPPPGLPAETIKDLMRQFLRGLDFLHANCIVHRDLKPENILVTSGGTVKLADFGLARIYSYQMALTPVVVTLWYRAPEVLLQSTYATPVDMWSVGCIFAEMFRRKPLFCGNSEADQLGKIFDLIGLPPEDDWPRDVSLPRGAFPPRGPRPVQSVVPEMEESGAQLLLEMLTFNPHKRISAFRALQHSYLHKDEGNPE

| Structure (SMILES) | IC50 (A549) [µM] | Activity (MDA-MB-231 [1]) [%] | IC50 [2] [µM] | Activity (MDA-MB-231 [3]) [%] | Activity (MDA-MB-231 [4]) [%] | IC50 [5] [µM] | IC50 (MCF7 [6]) [µM] | IC50 [7] [µM] | IC50 [8] [µM] | Activity (MDA-MB-231 [9]) [%] | Activity (MDA-MB-231 [10]) [%] | IC50 (HepG2) [µM] | viability at 10 µM (MDA-MB-231 [11]) [%] | Activity (MDA-MB-231 [12]) [%] | IC50 (MDA-MB-231 [13]) [µM] | Activity (MDA-MB-231 [14]) [%] | IC50 (MCF7 [15]) [µM] |
| --- | --- | --- | --- | --- | --- | --- | --- | --- | --- | --- | --- | --- | --- | --- | --- | --- | --- |
| C=CC(=O)N1CCN(c2ccc(Nc3ncc4c(C)c(C(C)=O)c(=O)n(C5CCCC5)c4n3)nc2)CC1 | 9.75 | 0.689 | 0.023 | 55.5 | 26.01 | > 1 | 0.62 | 0.015 | 0.89 | 15.2 | 60.21 | 9.55 | 43.8 | 13.78 | 5.26 | 40.3 | – |
| CC(=O)c1c(C)c2cnc(Nc3ccc(N4CCN(C(=O)/C=C/c5ccccc5)CC4)cn3)nc2n(C2CCCC2)c1=O | 14.4 | – | – | – | – | – | > 20 | – | – | – | – | 11.9 | – | – | 6.73 | – | – |
| C/C=C/C(=O)N1CCN(c2ccc(Nc3ncc4c(C)c(C(C)=O)c(=O)n(C5CCCC5)c4n3)nc2)CC1 | 17.3 | – | – | – | – | – | 2.36 | – | – | – | – | > 20 | – | – | 8.57 | – | – |
| COc1cc(/C=C/C(=O)N2CCN(c3ccc(Nc4ncc5c(C)c(C(C)=O)c(=O)n(C6CCCC6)c5n4)nc3)CC2)ccc1O | > 20 | – | – | – | – | – | > 20 | – | – | – | – | > 20 | – | – | 8.88 | – | – |
| CC(=O)c1c(C)c2cnc(Nc3ccc(N4CCNCC4)cn3)nc2n(C2CCCC2)c1=O [PALBOCICLIB] | 8.07 | 1.47 | – | 73.7 | 16.99 | – | 0.78 | – | – | 26.1 | 71.23 | 9.92 | 24.8 | 11.78 | 5.62 | 47.6 | 5.81 |
| COc1ccc(/C=C/C(=O)NCC(=O)N2CCN(c3ccc(Nc4ncc5c(C)c(C(C)=O)c(=O)n(C6CCCC6)c5n4)nc3)CC2)cc1OC | 14.4 | – | – | – | – | – | 2.33 | – | – | – | – | 11.7 | – | – | 8.96 | – | – |
| COc1ccc(/C=C/C(=O)NCCC(=O)N2CCN(c3ccc(Nc4ncc5c(C)c(C(C)=O)c(=O)n(C6CCCC6)c5n4)nc3)CC2)cc1OC | 11.8 | – | – | – | – | – | > 20 | – | – | – | – | 10.1 | – | – | 7.2 | – | – |
